# Experimental data as given in US20100168084A1, “Therapeutic compounds and related methods of use” (priority 2008, published 2010).
# Like-named read-outs stand apart in the source and are kept apart here.
# Biological target: T1, sirtuin protein (Homo sapiens, UniProt Q96EB6)
# T1 sequence (Q96EB6 2-747 limits assumed): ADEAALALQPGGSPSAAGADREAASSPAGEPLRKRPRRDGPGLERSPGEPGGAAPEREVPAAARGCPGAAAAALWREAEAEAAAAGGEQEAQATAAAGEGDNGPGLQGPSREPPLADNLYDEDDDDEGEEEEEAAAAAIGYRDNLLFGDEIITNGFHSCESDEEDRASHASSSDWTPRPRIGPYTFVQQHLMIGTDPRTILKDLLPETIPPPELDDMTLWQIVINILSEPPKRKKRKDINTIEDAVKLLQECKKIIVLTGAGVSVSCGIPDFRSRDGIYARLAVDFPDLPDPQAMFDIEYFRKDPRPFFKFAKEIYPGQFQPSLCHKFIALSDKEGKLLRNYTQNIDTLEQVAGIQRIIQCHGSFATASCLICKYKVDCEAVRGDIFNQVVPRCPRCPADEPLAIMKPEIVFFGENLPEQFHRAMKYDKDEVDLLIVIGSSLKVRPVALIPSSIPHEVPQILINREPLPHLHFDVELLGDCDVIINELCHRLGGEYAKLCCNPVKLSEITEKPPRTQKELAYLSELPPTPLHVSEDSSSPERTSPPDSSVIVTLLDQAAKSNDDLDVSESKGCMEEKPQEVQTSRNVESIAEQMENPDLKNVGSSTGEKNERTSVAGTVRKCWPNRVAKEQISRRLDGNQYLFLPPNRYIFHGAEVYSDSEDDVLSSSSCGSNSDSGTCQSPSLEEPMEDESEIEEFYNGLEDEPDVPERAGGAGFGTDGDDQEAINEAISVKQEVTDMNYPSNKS
# Assay: MS assay (IC50 MS ASSAY / ED50 MS / FOLD ACTIVATION MS)
# Format: biochemical
# Set-up: scale not given here
# [1] = MS assay, class symbols, key not given
# [2] = Table 4, class symbols A′, A, B, C, NA, legend not given
# [3] = Table 4, class symbols, legend not given
# [4] = Table 4, class symbols A′, A, B, D, NA, legend not given
# [5] = class symbols (A′, A, B, D, NA), no legend given
# [6] = MS assay, class symbols A′, A, B, D, NA, legend not given
ED50 MS ASSAY,ED50 MS ASSAY [1],ED50 MS ASSAY (TABLE 4),ED50 MS ASSAY (Table 4),ED50 MS ASSAY [2],ED50 MS ASSAY [3],"ED50 MS ASSAY (class symbols, no key given)","ED50 MS ASSAY (Table 4, class symbols)",ED50 MS ASSAY [4],ED50 MS ASSAY [5],ED50 MS ASSAY [6],Structure (SMILES)
A′,A′,A′,A′,A′,,,,,,,O=C(Nc1ccccc1-c1cn2c(CN3CCNCC3)csc2n1)c1cccc(OC(F)(F)F)c1 [Compound 698]
,,A′,A′,,A′,A′,,,,,COc1cc(OC)cc(C(=O)Nc2cccc(-c3nc4cccnc4s3)c2)c1 [Compound 215]
A′,,,A′,,,,A′,A′,A′,,CN(C)c1cccc(C(=O)Nc2ccccc2-c2nc3cccnc3[nH]2)c1 [Compound 524]
,,A′,A′,,A′,A′,,,,,COc1ccc(C(=O)Nc2cccc(-c3nc4cccnc4s3)c2)c(OC)c1 [Compound 213]
,,,A′,,,,,A′,,A′,COc1cc(C(=O)Nc2ccccc2-c2nc3ccccc3[nH]2)cc(OC)c1OC [Compound 293]
A′,,,A′,,,,A′,A′,A′,,O=C(Nc1ccccc1-c1nc2cccnc2[nH]1)c1ccc(N2CCOCC2)cc1 [Compound 526]
A′,,,A′,,,,A′,A′,A′,,COc1cc(C(=O)Nc2ccccc2-c2nc3ccccc3[nH]2)ccc1CN1CCNCC1 [Compound 558]
A′,,,A′,,,,A′,A′,A′,,COc1cc(C(=O)Nc2ccc(-c3nc4cnccc4s3)s2)cc(OC)c1OC [Compound 520]
A′,,,A′,,,,A′,A′,A′,,COc1cc(C(=O)Nc2ccccc2-c2cn3c(CN4CCCC4)csc3n2)cc(OC)c1OC [Compound 620]
A′,,,A′,,,,A′,A′,A′,,O=C(Nc1ccccc1-c1nc2ccccc2[nH]1)c1ccc2ccccc2n1 [Compound 556]
A′,A′,A′,A′,A′,,,,,,,O=C(Nc1ccccc1-c1nc2cc(CN3CCNCC3)cnc2s1)c1cc(-c2ccccc2)no1 [Compound 732]
A′,,,A′,,,,A′,A′,A′,,O=C(Nc1ccccc1-c1cn2c(CN3CCN(Cc4ccccc4)CC3=O)csc2n1)c1cnc2ccccc2n1 [Compound 628]
A′,A′,A′,A′,A′,,,,,,,O=C(Nc1ccccc1-c1cn2c(CN3CCSC3)csc2n1)c1cnc2ccccc2n1 [Compound 715]
A′,,,A′,,,,A′,A′,A′,,O=C(Nc1ccccc1-c1cn2c(CN3CCNCC3)csc2n1)c1cnccn1 [Compound 543]
,,,A′,,,,,A′,,A′,COc1ccc(C(=O)Nc2ccccc2-c2cn3cccnc3n2)cc1OC [Compound 438]
A′,,,A′,,,,A′,A′,A′,,N#Cc1cccc(C(=O)Nc2ccccc2-c2nc3cc(CN4CCNCC4)cnc3s2)c1 [Compound 592]
A′,,,A′,,,,A′,A′,A′,,CN(C)c1ccc(C(=O)Nc2ccc(-c3nc4cnccc4s3)s2)cc1 [Compound 519]
,,,A′,,,,,A′,,A′,CN(C)c1ccc(C(=O)Nc2ccccc2-c2nc3cnccc3o2)cc1 [Compound 407]
,,,A′,,,A′,,A′,,,COc1cc(C(=O)Nc2cccc(-c3cn4cccnc4n3)c2)cc(OC)c1OC [Compound 218]
A′,,,A′,,,,A′,A′,A′,,O=C(Nc1ccccc1-c1cn2c(CN3CCNCC3)csc2n1)c1cnc2ccccc2c1 [Compound 645]
,,,A′,,,,,A′,,A′,COc1cc(C(=O)Nc2ccc(-c3nc4cnccc4o3)cc2)cc(OC)c1OC [Compound 347]
A′,,,A′,,,,A′,A′,A′,,O=C(Nc1ccccc1-c1cn2c(CN3CCCC3)csc2n1)c1cnc2ccccc2n1 [Compound 619]
,,,A′,,,,,A′,,A′,COc1ccc(C(=O)Nc2ccccc2-c2cn3ccccc3n2)cc1OC [Compound 266]
A′,A′,A′,A′,A′,,,,,,,O=C(Nc1ccccc1-c1nc2ccc(CN3CCNCC3)nc2s1)c1ccc2ccccc2n1 [Compound 729]
A′,,,A′,,,,A′,A′,A′,,O=C(Nc1ccccc1-c1nc2cc(CN3CCNCC3)cnc2s1)c1cnc2ccccc2n1 [Compound 622]
,,,A′,,,,,A′,,A′,CN(C)c1ccc(C(=O)Nc2cccc(-c3nc4cnccc4s3)c2)cc1 [Compound 403]
A′,,,A′,,,,A′,A′,A′,,O=C(Nc1ccccc1-c1cn2c(CO)csc2n1)c1cnc2ccccc2n1 [Compound 648]
A′,,,A′,,,,A′,A′,A′,,COc1cc(C(=O)Nc2ccccc2-c2nc3cccnc3[nH]2)ccc1CN1CCOCC1 [Compound 537]
A′,,,A′,,,,A′,A′,A′,,COc1cc(OC)cc(C(=O)Nc2ccccc2-c2nc3cc(CN4CCNCC4)cnc3s2)c1 [Compound 589]
A′,,,A′,,,,A′,A′,A′,,COc1cc(NC(=S)Nc2cc(-c3nc4ncccc4o3)ccn2)cc(OC)c1 [Compound 661]

Structure (SMILES),ED50 MS ASSAY,ED50 MS ASSAY [1],ED50 MS ASSAY (TABLE 4),ED50 MS ASSAY (Table 4),ED50 MS ASSAY [2],ED50 MS ASSAY [3],"ED50 MS ASSAY (class symbols, no key given)","ED50 MS ASSAY (Table 4, class symbols)",ED50 MS ASSAY [4],ED50 MS ASSAY [5],ED50 MS ASSAY [6]
CN1CCN(C(=O)Cc2csc3nc(-c4ccccc4NC(=O)c4cnc5ccccc5n4)cn23)CC1 [Compound 649],A′,,,A′,,,,A′,A′,A′,
